In US12679878B2, “CRF2 receptor agonists and their use in therapy” (SANOFI, priority 2020, dated 2026):
Like-named read-outs stand apart in the source and are kept apart here. Starred links: 1 amine or outer side, 2 acyl side, 3 side chain; linkers in the order of their positions; H or OH if unused. Non-standard residues stand in square brackets, D forms with d. Residues, ends and D or L forms follow the SMILES beside them. Groups on a side chain read outwards from the residue. *: point of attachment. C18 diacid = O=C(O)CCCCCCCCCCCCCCCCC(=O)*; γGlu = O=C(O)[C@H](CCC(=O)[*:2])N[*:1]; AEEA = NCCOCCOCC(=O)O; Aib = CC(C)(N)C(=O)O

Biological target: T1, human CRF2α receptor (Homo sapiens, UniProt Q13324)
T1 construct: expressed in transfected cells; host or cells: TeloHEAC
T1 sequence (Q13324 1-411): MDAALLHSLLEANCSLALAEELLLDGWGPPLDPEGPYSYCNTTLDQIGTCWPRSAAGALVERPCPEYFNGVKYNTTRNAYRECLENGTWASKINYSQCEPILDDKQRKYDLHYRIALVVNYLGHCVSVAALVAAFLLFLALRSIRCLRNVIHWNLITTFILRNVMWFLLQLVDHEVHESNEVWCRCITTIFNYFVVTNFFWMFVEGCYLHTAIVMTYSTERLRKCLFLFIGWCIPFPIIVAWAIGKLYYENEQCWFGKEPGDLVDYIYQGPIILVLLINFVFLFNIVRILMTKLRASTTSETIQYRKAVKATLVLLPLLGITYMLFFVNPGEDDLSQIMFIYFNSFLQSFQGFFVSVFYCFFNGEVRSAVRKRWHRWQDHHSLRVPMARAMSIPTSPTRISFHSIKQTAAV
Assay: cAMP agonism at human CRF2 α receptor in TeloHEAC cells (Example 7)
Assay type: cell-based
Settings: cAMP HTRF, TeloHEAC cells stably expressing human CRF2 α
How it was run: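 Cryopreserved cells are thawed, washed and resuspended in IBMX-containing (2 mM) HEPES-buffered HBSS with or without 0.1% HSA. Compound incubation runs 30 min at room temperature with 2000 cells per well, then cAMP is measured by time-resolved FRET. Potency is expressed as EC50, efficacy relative to urocortin 2 at 1000 nM.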

[1] = 0% HSA, read-out: EC50 [nM], 0% HSA
[2] = 0.1% HSA, read-out: EC50 [nM], 0.1% HSA

Which EC50 [1] does the source give for CC[C@H](C)[C@H](N)C(=O)N[C@H](C(=O)N[C@@H](CC(C)C)C(=O)N[C@@H](CO)C(=O)N[C@@H](CC(C)C)C(=O)N[C@@H](CC(=O)O)C(=O)N[C@H](C(=O)N1CCC[C@H]1C(=O)N[C@H](C(=O)N[C@@H](CCCCN)C(=O)N[C@@H](CC(C)C)C(=O)N[C@@H](CCCCNC(=O)COCCOCCNC(=O)COCCOCCNC(=O)CC[C@H](NC(=O)CCCCCCCCCCCCCCCCC(=O)O)C(=O)O)C(=O)N[C@@H](CCC(N)=O)C(=O)N[C@@H](CCCCN)C(=O)N[C@@H](CC(C)C)C(=O)N[C@@H](CC(C)C)C(=O)N[C@@H](CCC(=O)O)C(=O)N[C@@H](CCC(N)=O)C(=O)N[C@@H](CCC(=O)O)C(=O)N[C@@H](CCCCN)C(=O)N[C@@H](CCC(N)=O)C(=O)N[C@@H](CCCCN)C(=O)N[C@@H](CCCCN)C(=O)N[C@@H](CCC(N)=O)C(=O)N[C@@H](CCCNC(=N)N)C(=O)N[C@@H](CCC(=O)O)C(=O)N[C@@H](CCC(N)=O)C(=O)N[C@@H](C)C(=O)N[C@@H](CCC(=O)O)C(=O)N[C@H](C(=O)N[C@@H](CC(N)=O)C(=O)N[C@@H](CCCCN)C(=O)N[C@@H](CCC(N)=O)C(=O)N[C@H](C(=O)N[C@@H](CC(C)C)C(=O)N[C@@H](C)C(=O)N[C@@H](CCC(N)=O)C(=O)N[C@H](C(N)=O)C(C)C)[C@@H](C)CC)[C@@H](C)O)[C@@H](C)CC)C(C)C)C(C)C [compound 84] (H-IVLSLDVPIKLK([AEEA-AEEA-γGlu-C18 diacid])QKLLEQEKQKKQREQAETNKQILAQV-NH2; N-terminus assumed) here?
Its EC50 is 1.85 nM.

What about the EC50 [2] of the same molecule?
Its EC50 is 61.7 nM.

Which results are given for CC[C@H](C)[C@H](N)C(=O)N[C@H](C(=O)N[C@@H](CC(C)C)C(=O)N[C@@H](CO)C(=O)N[C@@H](CC(C)C)C(=O)N[C@@H](CC(=O)O)C(=O)N[C@H](C(=O)N1CCC[C@H]1C(=O)N[C@H](C(=O)N[C@@H](CCCCN)C(=O)N[C@@H](CC(C)C)C(=O)N[C@@H](CCCCNC(=O)COCCOCCNC(=O)COCCOCCNC(=O)CC[C@H](NC(=O)CCCCCCCCCCCCCCCCC(=O)O)C(=O)O)C(=O)N[C@@H](CCC(N)=O)C(=O)N[C@H](C(=O)N[C@@H](CC(C)C)C(=O)N[C@@H](CC(C)C)C(=O)N[C@@H](CCCCN)C(=O)N[C@@H](CCC(N)=O)C(=O)N[C@@H](CCC(=O)O)C(=O)N[C@@H](CCCNC(=N)N)C(=O)N[C@@H](CCC(N)=O)C(=O)N[C@@H](CCCCN)C(=O)N[C@@H](CCCCN)C(=O)N[C@@H](CCC(N)=O)C(=O)N[C@@H](CCCNC(=N)N)C(=O)N[C@@H](CCC(=O)O)C(=O)N[C@@H](CCCCN)C(=O)N[C@@H](C)C(=O)N[C@@H](CCCCN)C(=O)N[C@H](C(=O)N[C@@H](CC(N)=O)C(=O)N[C@H](C(=O)N[C@@H](CCC(N)=O)C(=O)N[C@H](C(=O)N[C@@H](CC(C)C)C(=O)N[C@@H](C)C(=O)N[C@@H](CCC(N)=O)C(=O)N[C@H](C(N)=O)C(C)C)[C@@H](C)CC)C(C)C)[C@@H](C)O)[C@@H](C)CC)[C@@H](C)CC)C(C)C)C(C)C [compound 90] (H-IVLSLDVPIKLK([AEEA-AEEA-γGlu-C18 diacid])QILLKQERQKKQREKAKTNVQILAQV-NH2; N-terminus assumed)?
EC50 [1]: 3.91 nM; EC50 [2]: 92.6 nM

CC[C@H](C)[C@H](N)C(=O)N[C@H](C(=O)N[C@@H](CC(C)C)C(=O)N[C@@H](CO)C(=O)N[C@@H](CC(C)C)C(=O)N[C@@H](CC(=O)O)C(=O)N[C@H](C(=O)N1CCC[C@H]1C(=O)N[C@H](C(=O)N[C@@H](CCCCN)C(=O)N[C@@H](CC(C)C)C(=O)N[C@@H](CCCCNC(=O)COCCOCCNC(=O)COCCOCCNC(=O)CC[C@H](NC(=O)CCCCCCCCCCCCCCCCC(=O)O)C(=O)O)C(=O)N[C@@H](CCC(N)=O)C(=O)N[C@@H](CCCCN)C(=O)N[C@@H](CC(C)C)C(=O)N[C@@H](CC(C)C)C(=O)N[C@@H](CCCCN)C(=O)N[C@@H](CCC(N)=O)C(=O)N[C@@H](CCC(=O)O)C(=O)N[C@@H](CCCNC(=N)N)C(=O)N[C@@H](CCC(N)=O)C(=O)N[C@@H](CCCCN)C(=O)N[C@@H](CCCCN)C(=O)N[C@@H](CCC(N)=O)C(=O)N[C@@H](CCCNC(=N)N)C(=O)N[C@@H](CCC(=O)O)C(=O)N[C@@H](CCCCN)C(=O)N[C@@H](C)C(=O)N[C@@H](CCCCN)C(=O)N[C@H](C(=O)N[C@@H](CC(N)=O)C(=O)NC(C)(C)C(=O)N[C@@H](CCC(N)=O)C(=O)N[C@H](C(=O)N[C@@H](CC(C)C)C(=O)N[C@@H](C)C(=O)N[C@@H](CCC(N)=O)C(=O)N[C@H](C(N)=O)C(C)C)[C@@H](C)CC)[C@@H](C)O)[C@@H](C)CC)C(C)C)C(C)C [compound 91] (H-IVLSLDVPIKLK([AEEA-AEEA-γGlu-C18 diacid])QKLLKQERQKKQREKAKTN[Aib]QILAQV-NH2) was tested. Which EC50 [1] did it give?
Its EC50 is 14.3 nM.

With CC[C@H](C)[C@H](N)C(=O)N[C@H](C(=O)N[C@@H](CC(C)C)C(=O)N[C@@H](CO)C(=O)N[C@@H](CC(C)C)C(=O)N[C@@H](CC(=O)O)C(=O)N[C@H](C(=O)N1CCC[C@H]1C(=O)N[C@H](C(=O)N[C@@H](CCCCN)C(=O)N[C@@H](CC(C)C)C(=O)N[C@@H](CCCCNC(=O)COCCOCCNC(=O)COCCOCCNC(=O)CC[C@H](NC(=O)CCCCCCCCCCCCCCCCC(=O)O)C(=O)O)C(=O)N[C@@H](CCC(N)=O)C(=O)N[C@@H](CCCCN)C(=O)N[C@@H](CC(C)C)C(=O)N[C@@H](CC(C)C)C(=O)N[C@@H](CCC(=O)O)C(=O)N[C@@H](CCC(N)=O)C(=O)N[C@@H](CCC(=O)O)C(=O)N[C@@H](CCCNC(=N)N)C(=O)N[C@@H](CCC(N)=O)C(=O)N[C@@H](CCCCN)C(=O)N[C@@H](CCCCN)C(=O)N[C@@H](CCC(N)=O)C(=O)N[C@@H](CCCNC(=N)N)C(=O)N[C@@H](CCC(=O)O)C(=O)N[C@@H](CCC(N)=O)C(=O)N[C@@H](C)C(=O)N[C@@H](CCC(=O)O)C(=O)N[C@H](C(=O)N[C@@H](CC(N)=O)C(=O)NC(C)(C)C(=O)N[C@@H](CCC(N)=O)C(=O)N[C@H](C(=O)N[C@@H](CC(C)C)C(=O)N[C@@H](C)C(=O)N[C@@H](CCC(N)=O)C(=O)N[C@H](C(N)=O)C(C)C)[C@@H](C)CC)[C@@H](C)O)[C@@H](C)CC)C(C)C)C(C)C [compound 92] (H-IVLSLDVPIKLK([AEEA-AEEA-γGlu-C18 diacid])QKLLEQERQKKQREQAETN[Aib]QILAQV-NH2; N-terminus assumed) as the molecule, how does the EC50 [1] read?
The EC50 was 9.17 nM.

With CC[C@H](C)[C@H](N)C(=O)N[C@H](C(=O)N[C@@H](CC(C)C)C(=O)N[C@@H](CO)C(=O)N[C@@H](CC(C)C)C(=O)N[C@@H](CC(=O)O)C(=O)N[C@H](C(=O)N1CCC[C@H]1C(=O)N[C@H](C(=O)N[C@@H](CCCCN)C(=O)N[C@@H](CC(C)C)C(=O)N[C@@H](CCCCNC(=O)COCCOCCNC(=O)COCCOCCNC(=O)CC[C@H](NC(=O)CCCCCCCCCCCCCCCCC(=O)O)C(=O)O)C(=O)N[C@@H](CCC(N)=O)C(=O)N[C@@H](CCCCN)C(=O)N[C@@H](CC(C)C)C(=O)N[C@@H](CC(C)C)C(=O)N[C@@H](CCCCN)C(=O)N[C@@H](CCC(N)=O)C(=O)N[C@@H](CCC(=O)O)C(=O)N[C@@H](CCCNC(=N)N)C(=O)N[C@@H](CCC(N)=O)C(=O)N[C@@H](CCCCN)C(=O)N[C@@H](CCCCN)C(=O)N[C@@H](CCC(N)=O)C(=O)N[C@@H](CCCNC(=N)N)C(=O)N[C@@H](CCC(=O)O)C(=O)N[C@@H](CCCCN)C(=O)N[C@@H](C)C(=O)N[C@@H](CCCCN)C(=O)N[C@H](C(=O)N[C@@H](CC(N)=O)C(=O)N[C@H](C(=O)N[C@@H](CCC(N)=O)C(=O)N[C@H](C(=O)N[C@@H](CC(C)C)C(=O)N[C@@H](C)C(=O)N[C@@H](CCC(N)=O)C(=O)N[C@H](C(N)=O)C(C)C)[C@@H](C)CC)C(C)C)[C@@H](C)O)[C@@H](C)CC)C(C)C)C(C)C [compound 93] (H-IVLSLDVPIKLK([AEEA-AEEA-γGlu-C18 diacid])QKLLKQERQKKQREKAKTNVQILAQV-NH2; N-terminus assumed) as the molecule, how does the EC50 [1] read?
The EC50 was 50.9 nM.

How did the EC50 [1] turn out when CC[C@H](C)[C@H](N)C(=O)N[C@H](C(=O)N[C@@H](CC(C)C)C(=O)N[C@@H](CO)C(=O)N[C@@H](CC(C)C)C(=O)N[C@@H](CC(=O)O)C(=O)N[C@H](C(=O)N1CCC[C@H]1C(=O)N[C@H](C(=O)N[C@@H](CCCCN)C(=O)N[C@@H](CC(C)C)C(=O)N[C@@H](CCCCNC(=O)COCCOCCNC(=O)COCCOCCNC(=O)CC[C@H](NC(=O)CCCCCCCCCCCCCCCCC(=O)O)C(=O)O)C(=O)N[C@@H](CCCCN)C(=O)N[C@H](C(=O)N[C@@H](CC(C)C)C(=O)N[C@@H](CC(C)C)C(=O)N[C@@H](CCCCN)C(=O)N[C@@H](CCC(N)=O)C(=O)N[C@@H](CCC(=O)O)C(=O)N[C@@H](CCCNC(=N)N)C(=O)N[C@@H](CCC(N)=O)C(=O)N[C@@H](CCCCN)C(=O)N[C@@H](CCCCN)C(=O)N[C@@H](CCC(=O)O)C(=O)N[C@@H](CCCNC(=N)N)C(=O)N[C@@H](CCC(=O)O)C(=O)N[C@@H](CCC(N)=O)C(=O)N[C@@H](C)C(=O)N[C@@H](CCC(=O)O)C(=O)N[C@H](C(=O)N[C@@H](CC(N)=O)C(=O)N[C@@H](CCCCN)C(=O)N[C@@H](CCC(N)=O)C(=O)N[C@H](C(=O)N[C@@H](CC(C)C)C(=O)N[C@@H](C)C(=O)N[C@@H](CCC(N)=O)C(=O)N[C@H](C(N)=O)C(C)C)[C@@H](C)CC)[C@@H](C)O)[C@@H](C)CC)[C@@H](C)CC)C(C)C)C(C)C [compound 94] (H-IVLSLDVPIKLK([AEEA-AEEA-γGlu-C18 diacid])KILLKQERQKKEREQAETNKQILAQV-NH2) was run?
The EC50 was 1.73 nM.

And the EC50 [2]?
Its EC50 is 49.1 nM.
